# Measurements as given in paper PMC7913291, “Synthesis and Anti-Hepatocarcinoma Effect of Amino Acid Derivatives of Pyxinol and Ocotillol” (Molecules, 2021).
# Test system: HepG2 cells
# Experiment: Cytotoxic activity on HepG2 cells (CCK-8 assay)
# Format: cell-based
# Conditions: Homo sapiens, HepG2; CCK-8, 48 h, mean of three experiments ±SD; read-out: IC50 over HepG2 cells
# Method: Human hepatocellular liver carcinoma cell line (HepG2) were obtained from Institute of Biochemistry and Cell Biology, Academy of Science (Shanghai, China) and were authenticated using the STR profiling method. HepG2 cells were cultured in MDEM (Gibco, Waltham, MA, USA) supplemented with 10% fetal bovine serum (FBS) and 1% penicillin-streptomycin bubbled with 5% CO2-enriched air at a temperature of 37 °C (Thermo Scientific, Waltham, MA, USA). The cytotoxic effect of compounds on HepG2 cells was assessed by using CCK-8 method. Briefly, HepG2 cells were cultured in 96-well plates at a density of 5 × 10^3 cells per well for 24 h. […] Three replicates were performed. The relative cell viability was expressed as percentage relative to the untreated cells. The inhibition ratio was calculated. The IC50 values were calculated using Logistic regression from three independent tests.
row,Compound,IC50
1,"C[C@H](NC(=O)OC(C)(C)C)C(=O)O[C@H]1CC[C@@]2(C)C(CC[C@]3(C)C2C[C@@H](O)C2C([C@]4(C)CC[C@H](C(C)(C)O)O4)CC[C@]23C)C1(C)C (stereo partly drawn) [1a, (20S, 24R)-Epoxy-3β-O-(Boc-L-alanyl)-dammarane-12β, 25-diol]",26.3 ± 0.72 µM
2,"CSCC[C@H](NC(=O)OC(C)(C)C)C(=O)O[C@H]1CC[C@@]2(C)C(CC[C@]3(C)C2C[C@@H](O)C2C([C@]4(C)CC[C@H](C(C)(C)O)O4)CC[C@]23C)C1(C)C (stereo partly drawn) [1b, (20S, 24R)-Epoxy-3β-O-(Boc-L-methinyl)-dammarane-12β, 25-diol]",73.5 ± 2.6 µM
3,"CC(C)(C)OC(=O)NCC(=O)O[C@H]1CC[C@@]2(C)C(CC[C@]3(C)C2C[C@@H](O)C2C([C@]4(C)CC[C@H](C(C)(C)O)O4)CC[C@]23C)C1(C)C (stereo partly drawn) [1c, (20S, 24R)-Epoxy-3β-O-(Boc-L-glycyl)-dammarane-12β, 25-diol]",26.6 ± 1.52 µM
4,"CC(C)C[C@H](NC(=O)OC(C)(C)C)C(=O)O[C@H]1CC[C@@]2(C)C(CC[C@]3(C)C2C[C@@H](O)C2C([C@]4(C)CC[C@H](C(C)(C)O)O4)CC[C@]23C)C1(C)C (stereo partly drawn) [1d, (20S, 24R)-Epoxy-3β-O-(Boc-L-leucyl)-dammarane-12β,25-diol]",73.1 ± 1.67 µM
5,"CC(C)(C)OC(=O)N1CCCC1C(=O)O[C@H]1CC[C@@]2(C)C(CC[C@]3(C)C2C[C@@H](O)C2C([C@]4(C)CC[C@H](C(C)(C)O)O4)CC[C@]23C)C1(C)C (stereo partly drawn) [1e, (20S, 24R)-Epoxy-3β-O-(Boc-L-prolyl)-dammarane-12β, 25-diol]",30.5 ± 2.98 µM
6,"CC(C)[C@H](NC(=O)OC(C)(C)C)C(=O)O[C@H]1CC[C@@]2(C)C(CC[C@]3(C)C2C[C@@H](O)C2C([C@]4(C)CC[C@H](C(C)(C)O)O4)CC[C@]23C)C1(C)C (stereo partly drawn) [1f, (20S, 24R)-Epoxy-3β-O-(Boc-L-valyl)-dammarane-12β, 25-diol]",62.1 ± 3.78 µM
7,"C[C@H](N)C(=O)O[C@H]1CC[C@@]2(C)C(CC[C@]3(C)C2C[C@@H](O)C2C([C@]4(C)CC[C@H](C(C)(C)O)O4)CC[C@]23C)C1(C)C (stereo partly drawn) [2a, (20S, 24R)-Epoxy-3β-O-(L-alanyl)-dammarane-12β, 25-diol]",16.5 ± 1.66 µM
8,"CSCC[C@H](N)C(=O)O[C@H]1CC[C@@]2(C)C(CC[C@]3(C)C2C[C@@H](O)C2C([C@]4(C)CC[C@H](C(C)(C)O)O4)CC[C@]23C)C1(C)C (stereo partly drawn) [2b, (20S, 24R)-Epoxy-3β-O-(L-methinyl)-dammarane-12β, 25-diol]",20.3 ± 2.04 µM
9,"CC(C)(O)[C@H]1CC[C@@](C)(C2CC[C@]3(C)C2[C@H](O)CC2[C@@]4(C)CC[C@H](OC(=O)CN)C(C)(C)C4CC[C@]23C)O1 (stereo partly drawn) [2c, (20S, 24R)-Epoxy-3β-O-(L-glycyl)-dammarane-12β, 25-diol]",16.3 ± 0.31 µM
10,"CC(C)C[C@H](N)C(=O)O[C@H]1CC[C@@]2(C)C(CC[C@]3(C)C2C[C@@H](O)C2C([C@]4(C)CC[C@H](C(C)(C)O)O4)CC[C@]23C)C1(C)C (stereo partly drawn) [2d, (20S, 24R)-Epoxy-3β-O-(L-leucyl)-dammarane-12β, 25-diol]",20.1 ± 3.49 µM
11,"CC(C)[C@H](N)C(=O)O[C@H]1CC[C@@]2(C)C(CC[C@]3(C)C2C[C@@H](O)C2C([C@]4(C)CC[C@H](C(C)(C)O)O4)CC[C@]23C)C1(C)C (stereo partly drawn) [2f, (20S, 24R)-Epoxy-3β-O-(L-valyl)-dammarane-12β, 25-diol]",19.7 ± 1.96 µM
12,"C[C@H](NC(=O)OC(C)(C)C)C(=O)O[C@H]1CC[C@@]2(C)C([C@@H](O)C[C@]3(C)C2C[C@@H](O)C2C([C@]4(C)CC[C@H](C(C)(C)O)O4)CC[C@]23C)C1(C)C (stereo partly drawn) [3a, (20S, 24R)-Epoxy-3β-O-(Boc-L-alanyl)-dammarane-6α,12β,25-triol]",61 ± 1.57 µM
13,"CSCC[C@H](NC(=O)OC(C)(C)C)C(=O)O[C@H]1CC[C@@]2(C)C([C@@H](O)C[C@]3(C)C2C[C@@H](O)C2C([C@]4(C)CC[C@H](C(C)(C)O)O4)CC[C@]23C)C1(C)C (stereo partly drawn) [3b, (20S, 24R)-Epoxy-3β-O-(Boc-L-methinyl)-dammarane-6α,12β,25-triol]",88.6 ± 5.03 µM
14,"CC(C)(C)OC(=O)NCC(=O)O[C@H]1CC[C@@]2(C)C([C@@H](O)C[C@]3(C)C2C[C@@H](O)C2C([C@]4(C)CC[C@H](C(C)(C)O)O4)CC[C@]23C)C1(C)C (stereo partly drawn) [3c, (20S, 24R)-Epoxy-3β-O-(Boc-L-glycyl)-dammarane-6α,12β,25-triol]",32.6 ± 1.55 µM
15,"CC(C)C[C@H](NC(=O)OC(C)(C)C)C(=O)O[C@H]1CC[C@@]2(C)C([C@@H](O)C[C@]3(C)C2C[C@@H](O)C2C([C@]4(C)CC[C@H](C(C)(C)O)O4)CC[C@]23C)C1(C)C (stereo partly drawn) [3d, (20S, 24R)-Epoxy-3β-O-(Boc-L-leucyl)-dammarane-6α,12β,25-triol]",74.9 ± 2.87 µM
16,"CC(C)(C)OC(=O)N1CCCC1C(=O)O[C@H]1CC[C@@]2(C)C([C@@H](O)C[C@]3(C)C2C[C@@H](O)C2C([C@]4(C)CC[C@H](C(C)(C)O)O4)CC[C@]23C)C1(C)C (stereo partly drawn) [3e, (20S, 24R)-Epoxy-3β-O-(Boc-L-prolyl)-dammarane-6α,12β,25-triol]",41.8 ± 2.58 µM
17,"CC(C)[C@H](NC(=O)OC(C)(C)C)C(=O)O[C@H]1CC[C@@]2(C)C([C@@H](O)C[C@]3(C)C2C[C@@H](O)C2C([C@]4(C)CC[C@H](C(C)(C)O)O4)CC[C@]23C)C1(C)C (stereo partly drawn) [3f, (20S, 24R)-Epoxy-3β-O-(Boc-L-valyl)-dammarane-6α,12β,25-triol]",80.1 ± 2.03 µM
18,"C[C@H](N)C(=O)O[C@H]1CC[C@@]2(C)C([C@@H](O)C[C@]3(C)C2C[C@@H](O)C2C([C@]4(C)CC[C@H](C(C)(C)O)O4)CC[C@]23C)C1(C)C (stereo partly drawn) [4a, (20S, 24R)-Epoxy-3β-O-(L-alanyl)-dammarane-6α,12β,25-triol]",34 ± 0.9 µM
19,"CSCC[C@H](N)C(=O)O[C@H]1CC[C@@]2(C)C([C@@H](O)C[C@]3(C)C2C[C@@H](O)C2C([C@]4(C)CC[C@H](C(C)(C)O)O4)CC[C@]23C)C1(C)C (stereo partly drawn) [4b, (20S, 24R)-Epoxy-3β-O-(L-methinyl)-dammarane-6α,12β,25-triol]",50.6 ± 0.62 µM
20,"CC(C)(O)[C@H]1CC[C@@](C)(C2CC[C@]3(C)C2[C@H](O)CC2[C@@]4(C)CC[C@H](OC(=O)CN)C(C)(C)C4[C@@H](O)C[C@]23C)O1 (stereo partly drawn) [4c, (20S, 24R)-Epoxy-3β-O-(-L-glycyl)-dammarane-6α,12β,25-triol]",20.6 ± 2.47 µM
21,"CC(C)C[C@H](N)C(=O)O[C@H]1CC[C@@]2(C)C([C@@H](O)C[C@]3(C)C2C[C@@H](O)C2C([C@]4(C)CC[C@H](C(C)(C)O)O4)CC[C@]23C)C1(C)C (stereo partly drawn) [4d, (20S, 24R)-Epoxy-3β-O-(L-leucyl)-dammarane-6α,12β,25-triol]",35.4 ± 1.59 µM
22,"CC(C)(O)[C@H]1CC[C@@](C)(C2CC[C@]3(C)C2[C@H](O)CC2[C@@]4(C)CC[C@H](OC(=O)C5CCCN5)C(C)(C)C4[C@@H](O)C[C@]23C)O1 (stereo partly drawn) [4e, (20S, 24R)-Epoxy-3β-O-(L-prolyl)-dammarane-6α,12β,25-triol]",24.6 ± 0.35 µM
23,"CC(C)[C@H](N)C(=O)O[C@H]1CC[C@@]2(C)C([C@@H](O)C[C@]3(C)C2C[C@@H](O)C2C([C@]4(C)CC[C@H](C(C)(C)O)O4)CC[C@]23C)C1(C)C (stereo partly drawn) [4f, (20S, 24R)-Epoxy-3β-O-(L-valyl)-dammarane-6α,12β,25-triol]",44.7 ± 3.07 µM
24,CC(C)(O)C1CCC(C)(C2CCC3(C)C2C(O)CC2C4(C)CCC(O)C(C)(C)C4CCC23C)O1 (centres unmarked) [Pyxinol],74.5 ± 1.09 µM

# Test system: not given
# Experiment: not given
# Conditions: rats; cited from earlier work
Compound,oral bioavailability,t1/2
CC(C)(O)C1CCC(C)(C2CCC3(C)C2C(O)CC2C4(C)CCC(O)C(C)(C)C4CCC23C)O1 (centres unmarked) [Pyxinol],low,short
